According to ChEMBL document CHEMBL1201861, “Genomics of Drug Sensitity in Cancer screening data, Wellcome Trust Sanger Institute”:
pIC50: −log10 of the molar value.

How the values were obtained:
Experiment in all cases: cells
EW-3 = type: functional, cell-based; details: Homo sapiens;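 note: cell viability assay read-out, IC50 reflects inhibition of growth of the EW-3 cells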
Description: SANGER: Inhibition of human EW-3 cell growth in a cell viability assay.

CAL-51 = type: functional, cell-based, Homo sapiens; details: Homo sapiens, CAL-51;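 note: human CAL-51 cell line, growth inhibition read out via a cell viability assay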
Description: SANGER: Inhibition of human CAL-51 cell growth in a cell viability assay.

HMV-2 cell line = type: functional, cell-based, Homo sapiens; details: Homo sapiens, HMV-2;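 note: growth inhibition of HMV-II cells, read out with a cell viability assay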
Description: SANGER: Inhibition of human HMV-II cell growth in a cell viability assay.

DOK = type: functional, cell-based, Homo sapiens; details: Homo sapiens, DOK;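 note: cell viability assay read-out, values reflect inhibition of cell growth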
Description: SANGER: Inhibition of human DOK cell growth in a cell viability assay.

HCC1954 = type: functional, cell-based, Homo sapiens; details: Homo sapiens, HCC1954;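 note: growth inhibition of human HCC1954 cells, read out with a cell viability assay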
Description: SANGER: Inhibition of human HCC1954 cell growth in a cell viability assay.

MOLT-16 = type: functional, cell-based; details: Homo sapiens;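 note: growth inhibition of human MOLT-16 cells, read out with a cell viability assay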
Description: SANGER: Inhibition of human MOLT-16 cell growth in a cell viability assay.

SF-126 = type: functional, cell-based, Homo sapiens; details: Homo sapiens, SF-126;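 note: growth inhibition of human SF126 cells, read out with a cell viability assay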
Description: SANGER: Inhibition of human SF126 cell growth in a cell viability assay.

KYSE-180 = type: functional, cell-based, Homo sapiens; details: Homo sapiens, KYSE-180;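 note: growth inhibition of KYSE-180 cells, read out with a cell viability assay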
Description: SANGER: Inhibition of human KYSE-180 cell growth in a cell viability assay.

AN3-CA = type: functional, cell-based; details: Homo sapiens;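 note: growth inhibition of human AN3-CA cells measured by a cell viability assay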
Description: SANGER: Inhibition of human AN3-CA cell growth in a cell viability assay.

NCI-H1355 = type: functional, cell-based, Homo sapiens; details: Homo sapiens, NCI-H1355;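 note: growth inhibition of human NCI-H1355 cells, read out by a cell viability assay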
Description: SANGER: Inhibition of human NCI-H1355 cell growth in a cell viability assay.

SK-LU-1 = type: functional, cell-based, Homo sapiens; details: Homo sapiens, SK-LU-1;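 note: cell viability assay measuring growth inhibition of human SK-LU-1 cells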
Description: SANGER: Inhibition of human SK-LU-1 cell growth in a cell viability assay.

S-117 = type: functional, cell-based, Homo sapiens; details: Homo sapiens, S-117
Description: SANGER: Inhibition of human S-117 cell growth in a cell viability assay.

CAPAN-1 = type: functional, cell-based, Homo sapiens; details: Homo sapiens, CAPAN-1;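 note: growth suppression of CAPAN-1 cells, read out by a cell viability assay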
Description: SANGER: Inhibition of human CAPAN-1 cell growth in a cell viability assay.

RKO = type: functional, cell-based, Homo sapiens; details: Homo sapiens, RKO;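 note: growth inhibition of human RKO cells, read out with a cell viability assay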
C2BBe1 = type: functional, cell-based, Homo sapiens; details: Homo sapiens, C2BBe1;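 note: growth inhibition of C2BBe1 cells, read out through a viability assay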
Description: SANGER: Inhibition of human C2BBe1 cell growth in a cell viability assay.

U2OS = type: functional, cell-based, Homo sapiens, U-2-OS; details: Homo sapiens, U2OS;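 note: growth inhibition of human U-2-OS cells, determined with a cell viability assay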
Description: SANGER: Inhibition of human U-2-OS cell growth in a cell viability assay.

HCE-4 = type: functional, cell-based, Homo sapiens; details: Homo sapiens, HCE-4;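 note: cell viability assay measuring inhibition of growth in the human HCE-4 cell line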
Description: SANGER: Inhibition of human HCE-4 cell growth in a cell viability assay.

D-502MG = type: functional, cell-based, Homo sapiens; details: Homo sapiens, D-502MG
Description: SANGER: Inhibition of human D-502MG cell growth in a cell viability assay.

A3-KAW = type: functional, cell-based; details: Homo sapiens;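 note: growth inhibition of human A3-KAW cells, read out with a cell viability assay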
Description: SANGER: Inhibition of human A3-KAW cell growth in a cell viability assay.

KARPAS-45 = type: functional, cell-based; details: Homo sapiens;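 note: inhibition of cell line growth, read out through a viability assay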
Description: SANGER: Inhibition of human KARPAS-45 cell growth in a cell viability assay.

JEG-3 = type: functional, cell-based, Homo sapiens; details: Homo sapiens, JEG-3;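 note: growth inhibition of human JEG-3 cells, read out with a cell viability assay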
Description: SANGER: Inhibition of human JEG-3 cell growth in a cell viability assay.

KS-1 = type: functional, cell-based, Homo sapiens; details: Homo sapiens, KS-1;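 note: growth inhibition of KS-1 cells, read out with a cell viability assay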
Description: SANGER: Inhibition of human KS-1 cell growth in a cell viability assay.

PC-3 = type: functional, cell-based, Homo sapiens; details: Homo sapiens, PC-3;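 note: cell viability assay measuring growth inhibition of PC-3 cells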
Description: SANGER: Inhibition of human PC-3 cell growth in a cell viability assay.

MeWo = type: functional, cell-based, Homo sapiens; details: Homo sapiens, MeWo;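 note: growth inhibition of MeWo cells, determined by a cell viability readout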
Description: SANGER: Inhibition of human Mewo cell growth in a cell viability assay.

SiHa = type: functional, cell-based, Homo sapiens; details: Homo sapiens, SiHa;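 note: Viability-based readout of growth inhibition in SiHa cells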
Description: SANGER: Inhibition of human SiHa cell growth in a cell viability assay.

SW872 = type: functional, cell-based, Homo sapiens; details: Homo sapiens, SW872;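 note: growth inhibition of SW872 cells, read out by a viability assay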
Description: SANGER: Inhibition of human SW872 cell growth in a cell viability assay.

CaR-1 = type: functional, cell-based, Homo sapiens; details: Homo sapiens, CaR-1;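 note: growth inhibition of human CaR-1 cancer cells, read out with a cell viability assay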
Description: SANGER: Inhibition of human CaR-1 cell growth in a cell viability assay.

SW-620 = type: functional, cell-based, Homo sapiens; details: Homo sapiens, SW-620;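 note: growth inhibition of human SW-620 cells, measured by a cell viability assay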
Description: SANGER: Inhibition of human SW620 cell growth in a cell viability assay.

P30-OHK = type: functional, cell-based; details: Homo sapiens;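 note: growth inhibition of the P30-OHK cell line, read out with a cell viability assay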
Description: SANGER: Inhibition of human P30-OHK cell growth in a cell viability assay.

OCUB-M = type: functional, cell-based, Homo sapiens; details: Homo sapiens, OCUB-M;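 note: growth inhibition of the cancer cell line, read out through a cell viability assay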
Description: SANGER: Inhibition of human OCUB-M cell growth in a cell viability assay.

NCI-H1755 = type: functional, cell-based, Homo sapiens; details: Homo sapiens, NCI-H1755;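 note: cell viability readout used to measure growth inhibition of NCI-H1755 cells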
Description: SANGER: Inhibition of human NCI-H1755 cell growth in a cell viability assay.

KU812 cell line = type: functional, cell-based; details: Homo sapiens;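 note: growth inhibition of KU812 cells, read out with a cell viability assay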
Description: SANGER: Inhibition of human KU812 cell growth in a cell viability assay.

C8166 = type: functional, cell-based; details: Homo sapiens;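 note: growth inhibition of human C8166 cells measured by a cell viability assay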
Description: SANGER: Inhibition of human C8166 cell growth in a cell viability assay.

LoVo = type: functional, cell-based; details: Homo sapiens;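 note: growth inhibition of human LoVo cells, read out with a cell viability assay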
Description: SANGER: Inhibition of human LoVo cell growth in a cell viability assay.

KE-37 = type: functional, cell-based; details: Homo sapiens;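 note: growth inhibition of KE-37 cells, read out with a cell viability assay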
Description: SANGER: Inhibition of human KE-37 cell growth in a cell viability assay.

NCI-H292 = type: functional, cell-based, Homo sapiens; details: Homo sapiens, NCI-H292;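 note: growth inhibition of NCI-H292 cells, read out with a cell viability assay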
Description: SANGER: Inhibition of human NCI-H292 cell growth in a cell viability assay.

KLE = type: functional, cell-based, Homo sapiens; details: Homo sapiens, KLE;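 note: growth inhibition of human KLE cells, read out with a cell viability assay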
Description: SANGER: Inhibition of human KLE cell growth in a cell viability assay.

OVCAR-4 = type: functional, cell-based, Homo sapiens; details: Homo sapiens, OVCAR-4;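 note: growth inhibition of human OVCAR-4 cells, measured with a cell viability assay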
Description: SANGER: Inhibition of human OVCAR-4 cell growth in a cell viability assay.

AU565 = type: functional, cell-based, Homo sapiens; details: Homo sapiens, AU565;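 note: cell viability assay measuring growth inhibition of human AU565 cells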
Description: SANGER: Inhibition of human AU565 cell growth in a cell viability assay.

RPMI-8866 = type: functional, cell-based; details: Homo sapiens
Description: SANGER: Inhibition of human RPMI-8866 cell growth in a cell viability assay.

M059J = type: functional, cell-based, Homo sapiens; details: Homo sapiens, M059J;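 note: growth inhibition of M059J cells, read out with a cell viability assay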
Description: SANGER: Inhibition of human M059J cell growth in a cell viability assay.

NCI-H82 = type: functional, cell-based; details: Homo sapiens;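 note: growth inhibition of NCI-H82 cells, measured with a cell viability readout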
Description: SANGER: Inhibition of human NCI-H82 cell growth in a cell viability assay.

EW-18 = type: functional, cell-based; details: Homo sapiens;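 note: growth inhibition of EW-18 cells, read out by a cell viability assay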
Description: SANGER: Inhibition of human EW-18 cell growth in a cell viability assay.

VM-CUB-1 = type: functional, cell-based; details: Homo sapiens;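 note: cell viability assay measuring growth inhibition of the human VM-CUB-1 cell line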
Description: SANGER: Inhibition of human VM-CUB-1 cell growth in a cell viability assay.

A388 = type: functional, cell-based, Homo sapiens; details: Homo sapiens, A388;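 note: growth inhibition of human A388 cells, read out with a cell viability assay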
Description: SANGER: Inhibition of human A388 cell growth in a cell viability assay.

786-0 = type: functional, cell-based, Homo sapiens; details: Homo sapiens
Description: SANGER: Inhibition of human 786-0 cell growth in a cell viability assay.

NCI-H69 = type: functional, cell-based; details: Homo sapiens;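 note: growth inhibition of the cell line, read out with a cell viability assay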
Description: SANGER: Inhibition of human NCI-H69 cell growth in a cell viability assay.

BFTC-905 = type: functional, cell-based, Homo sapiens; details: Homo sapiens, BFTC-905
Description: SANGER: Inhibition of human BFTC-905 cell growth in a cell viability assay.

M14 = type: functional, cell-based, Homo sapiens; details: Homo sapiens, M14;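 note: growth inhibition of M14 cells, read out with a cell viability assay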
Description: SANGER: Inhibition of human M14 cell growth in a cell viability assay.

TGW = type: functional, cell-based; details: Homo sapiens;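 note: growth inhibition of human TGW cells, read out with a cell viability assay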
Description: SANGER: Inhibition of human TGW cell growth in a cell viability assay.

SCC-9 = type: functional, cell-based, Homo sapiens; details: Homo sapiens, SCC-9;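 note: Read-out is a cell viability assay, with values giving inhibition of cell growth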
ESS-1 = type: functional, cell-based, Homo sapiens; details: Homo sapiens, ESS-1;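 note: growth inhibition of human ESS-1 cells, read out by a cell viability assay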
Description: SANGER: Inhibition of human ESS-1 cell growth in a cell viability assay.

COLO-668 = type: functional, cell-based, Homo sapiens; details: Homo sapiens, COLO-668
Description: SANGER: Inhibition of human COLO-668 cell growth in a cell viability assay.

NMC-G1 = type: functional, cell-based, Homo sapiens; details: Homo sapiens, NMC-G1;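 note: growth inhibition of the NMC-G1 cell line, measured with a cell viability read-out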
Description: SANGER: Inhibition of human NMC-G1 cell growth in a cell viability assay.

Measured: pIC50

C=CCc1cccc(/C=N/NC(=O)CN2CCN(Cc3ccccc3)CC2)c1O [PAC-1]
5.91: C8166
6.13: 786-0
5.71: A3-KAW
6.67: KE-37
< 5.59: all other assays above

Cc1ccc(Nc2nccc(N(C)c3ccc4c(C)n(C)nc4c3)n2)cc1S(N)(=O)=O [PAZOPANIB]
5.11: D-502MG
5.27: KU812 cell line
5.61: SF-126
8.00: AN3-CA
5.26: P30-OHK
5.18: NMC-G1
5.48: OCUB-M
5.79: ESS-1
5.50: SK-LU-1
5.12: S-117
< 5.10: all other assays above

CN(c1ncccc1CNc1nc(Nc2ccc3c(c2)CC(=O)N3)ncc1C(F)(F)F)S(C)(=O)=O [PF-00562271]
5.64: KYSE-180
5.91: AN3-CA
< 5.59: all other assays above
